Measured values as given in US20150216870A1, “Combination of PI3K Inhibitor and C-Met Inhibitor” (Novartis AG, priority 2012, published 2015).
“Also recorded” adds a separate entry of the source.

How the values were obtained:
[1] = tested on: NCI-H1993 human non-small cell lung carcinoma xenograft; assay: NCI-H1993 xenograft tumor growth inhibition and tumor growth delay; format: in vivo, athymic nude mice; conditions: c-Met inhibitor 17.7 mg/kg p.o. b.i.d. to end
Text: In this experiment, the NCI-H1993 human non-small cell lung carcinoma xenograft model is used to assess the anti-tumor efficacy of the PI3K inhibitor COMPOUND D and c-Met inhibitor 2-fluoro-N-methyl-4-[7-quinolin-6-yl-methyl)-imidazo[1,2-b][1,2,4]triazin-2yl]benzamide as single agents or in combination. NCI-H1993 tumor cells obtained from the American Type Culture Collection (ATCC) are derived from a lymph node metastasis of a patient having a stage 3A lung adenocarcinoma and a history of smoking.
Female athymic nude mice (Crl:NU (Ncr)-Foxn1^nu, Charles River) are 8 weeks old, and have a body weight (BW) range of 16.1-26.2 g, on D1 of the study. The animals are fed ad libitum water (reverse osmosis, 1 ppm CI) and NIH 31 Modified and Irradiated Lab Diet® consisting of 18.0% crude protein, 5.0% crude fat, and 5.0% crude fiber. The mice are housed on irradiated Enrich-O'cobs™ Laboratory Animal Bedding in static microisolators on a 12-hour light cycle at 20-22° C. (68-72° F.) and 40-60% humidity.
The NCI-H1993 tumor line is obtained from the American Type Culture Collection and maintained at DRS_NC in RPMI-1640 medium containing 100 unites/penicillin G sodium, 100 µg/mL streptomycin sulfate, 25 µg/mL gentamicin, 10% fetal bovine serum, and 2 mM glutamine. The tumor cells are cultured in tissue culture flasks in a humidified incubator at 37° C. in an atmosphere of 5% CO2 and 95% air.
The tumor cells used for implementation are harvested during log phase growth and resuspended in cold PBS containing 50% Matrigel™ (BD Biosciences). Each mouse is injected subcutaneously in the right flank with 1×10^7 cells (0.2 mL cell suspension). Tumors are calipered in two dimensions to monitor growth as their mean volume approached the desired 200-250 mm^3 range. Tumor size, in mm^3, was calculated from: Tumor Volume=(width^2×length)/2, where width and length (in mm) are measurements of the tumor. Tumor weight can be estimated with the assumption that 1 mg is equivalent to 1 mm^3 of tumor volume. Fourteen days after tumor cell implantation, on D1 of the study, mice with individual tumor volumes of 172-256 mm^3 are sorted into groups of ten mice, with group mean tumor volumes of 206-215 mm^3.
The c-Met inhibitor 2-fluoro-N-methyl-4-[7-quinolin-6-yl-methyl)-imidazo[1,2-b][1,2,4]triazin-2yl]benzamide (HCl salt, 84.98% free base) is stored at 4° C. and is added to a volume of deionized water equal to 1/2 of the final volume and sonicated until dissolved to obtain a uniform 2× suspension. An equal volume of 0.5% methylcellulose: 0.1% Tween® 80 is added to provide a 1.77 mg/mL solution with final vehicle concentrations of 0.25% methylcellulose and 0.05% Tween® 80 in deionized water (Vehicle 1). Fresh solutions are prepared once daily for the […]. dosing and stored at room temperature until the a.m. dosing.
COMPOUND D is suspended at 3.0 mg/mL in 0.5% methylcellulose in deionized water. The vehicle is added in portions equal to 1/3 of the final volume. The suspension is vortexed after each addition, and then finally probe sonicated on ice to prepare a homogeneous white suspension. A fresh suspension is prepared weekly, stored at 4° C., and re-suspended prior to dosing.
The c-MET inhibitor and the vehicle is each administered via oral gavage (p.o.) twice daily for the duration of the study (b.i.d. to end). COMPOUND D is administered via oral gavage (p.o.) once daily for the duration of the study (qd to end). In combination therapies, COMPOUND D is dosed within 30 minutes after the c-Met inhibitor. In all groups, the dosing volume of 10 mL/kg (0.2 mL/20 g mouse) is scaled to the weight of each animal as determined on the day of dosing, except on weekends when the previous BW is carried forward.
The groups of nude mice (n=10/group) are treated as follows. Group 1 receive Vehicle 1 and Vehicle 2 and serve as controls for the study. […] Group 3 receives 30 mg/kg COMPOUND D monotherapy once daily for the duration of the study (qd to end).

[2] = Toxicity (deaths) in U-87 MG xenograft study; format: in vivo
Text: Animals are weighed on Days 1-5, on each treatment day (except weekends), and twice weekly thereafter, until the end of the study. Group mean BW nadir determinations exclude measurements taken after more than 50% of the assessable mice in the group had exited the study, and also excluded any animal that was classified as an NTR death during the study. Acceptable toxicity for the maximum tolerated dose (MTD) is defined as a group mean BW loss of less than 15% during the test, and not more than one TR death among ten animals. Any animal with BW losses exceeding 15% for three consecutive measurements, or with a BW loss exceeding 20% for one measurement, are euthanized, and classified as a TR death unless it was the first death in the group. A death is classified as Non-Treatment Related (NTR) if there was no evidence that the death is related to treatment side effects and the death occurs more than 14 days after dosing ended. NTR deaths are categorized as NTRa (due to accident or error), NTRu (due to unknown causes), or NTRm (necropsy-confirmed tumor dissemination by invasion and/or metastasis). To conserve animals while providing maximum information, the first death in a group was classified as NTRu; such an NTR death was to be reclassified as TR if two subsequent TR deaths are recorded in the same group.

U-87 MG = assay: CellTiter-Glo cell viability dose matrix in U-87 MG glioblastoma cells; format: cell-based, human; conditions: U87 MG (PTEN mutant, HGF expressing)
Experimental: The PI3K inhibitor COMPOUND C and the c-MET receptor tyrosine kinase inhibitor 2-fluoro-N-methyl-4-[7-quinolin-6-yl-methyl)-imidazo[1,2-b][1,2,4]triazin-2yl]benzamide are evaluated in combination in glioblastoma tumor models. COMPOUND C (10 mM) and 2-fluoro-N-methyl-4-[7-quinolin-6-yl-methyl)-imidazo[1,2-b][1,2,4]triazin-2yl]benzamide (10 mM) are dissolved in DMSO, and are stored in aliquots at −20° C.
Human Glioblastoma cell lines, U-87 MG (PTEN mutant and HGF expressing line), H4 (PTEN mutant and HGF expressing line), A172 (PTEN mutant line with low HGF expression level) and LN-229 (PTEN wildtype and HGF low) are purchased from American Type Cell Collection and are maintained in a humidified incubator at 37° C. in 5% CO2 in recommended media. All four cell lines express detected MET at the mRNA level.
The cells are passaged twice a week and the medium is changed every 2 to 3 days. […]
Cell viability is determined by measuring cellular ATP content using the CellTiter-Glo® (CTG) luminescent cell viability assay (Promega). […] An equal volume of the CTG reagents is added to each well at the end of the compound treatment and luminescence is recorded on an Envision plate reader (Perkin Elmer). Reduced and enhanced luminescent signal values (responses) are calculated relative to untreated (control) cells. […]

## CNC(=O)c1ccc(-c2cnc3ncc(Cc4ccc5ncccc5c4)n3n2)cc1F [c-Met inhibitor]
[1]
  % TGD: 97%
  D71 survivors: four
  T-C: 24.2 days
[1]; D20
  T/C or T/T0: 15%
[1]; endpoint 600 mm3
  Median TTE: 49.2 days
[1]; logrank vs control
  overall survival (in words): significantly extends survival; also recorded: significant survival extension
[1]; vs control Group 1
  D20 tumor growth inhibition (in words): does not achieve significant inhibition relative to control; also recorded: non-significant D20 tumor growth inhibition
[2]; c-Met inhibitor 17.7 mg/kg p.o. qd x21
  Deaths: (0)
[2]; c-Met inhibitor 35.3 mg/kg p.o. qd x21
  Deaths: (0)
U-87 MG
  anti-proliferative activity (single agent): only moderate activities
